Measurements: paper PMC7613620, “Reaction hijacking of tyrosine tRNA synthetase as a whole-of-life-cycle antimalarial strategy” (Science (New York, N.Y.), 2022)

How the values were obtained:
in vivo = conditions: male, Sprague-Dawley, rat
Protocol: 625 of 50 mg/kg of compound on day 3 post-infection and measuring the effect on blood parasitemia by
626 microscopic analysis of Giemsa-stained blood smears (on days 3, 4, 5, 6 and 7 post-infection). Mice were
630 Human biological samples were sourced ethically; and their research use was in accord with the terms of
631 the informed consent. All animal studies were ethically reviewed and carried out in accredited facilities in
632 accordance with the relevant country’s directives and the institution’s Policy on the Care, Welfare and
633 Treatment of Animals.
635 Plasma exposure in infected mouse model
636 Compound was administered orally to two mice at 25 mg/kg on days 3, 4, 5, 6 after infection. On day 3,
637 blood samples (20 μL) were obtained at time points up to 24 hours after the first administration. Protein was
638 precipitated with acetonitrile and the remaining compound was assessed by LC-MS/MS in the selected reaction
641 Rat pharmacokinetics (PK) analyses
642 Sprague-Dawley rats (11 weeks old) were sourced from Hilltop Lab Animals, Inc (Scottdale, Pennsylvania,
643 USA). […]
(§1) 648 0.5% formic acid in methanol and the supernatants were analysed by positive ion electrospray LC-MS for
(§2) 649 the administered compound. Non-compartmental pharmacokinetic parameters were calculated from […]
(§3) 660 IGM Genomics Center on the Illumina HiSeq 2500 in RapidRun mode to generate 100bp paired-end reads.

[1] = tested on: P. falciparum 3D7 clones selected with ML901 (D4, F7, B11); assay: In vitro evolved ML901-resistant 3D7 clones, IC50_72h; format: cell-based, Plasmodium falciparum
Protocol: 537 Screening of nucleoside sulfamates for inhibition of the growth of cultures of P. falciparum (3D7).
538 High throughput screening of compounds from the Takeda library was performed by SCYNEXIS, Inc.
539 Jersey City, NJ, USA. Synchronized (5% sorbitol) ring stage parasites (3D7 strain; 1.5% haematocrit; 0.1
540 – 0.5% starting parasitemia) were incubated in 96-well plates, in triplicate, diluted in DMSO, for 72 h in
541 RPMI 1640 supplemented with 10% human serum, 5% CO2, 5% O2, 90% N2. Infected RBCs were lysed
542 with 10 mM Tris HCl, 5 mM EDTA, 0.008% saponin, 0.08% Triton X-100, pH 7.5, containing SYBR
543 Green. Following incubation for 15-60 min, fluorescence signal was assessed. Sigmoidal dose response
544 curves were generated and the IC50 values determined using CLfit curve fitting software from IDBS […]
549 stage parasites (3D7 strain (43)) were incubated with the inhibitors for 72 h and viability was assessed in […]
638 precipitated with acetonitrile and the remaining compound was assessed by LC-MS/MS in the selected reaction […]
as §1, §2, §3

Caco2 permeability = format: in vitro ADME; conditions: human, Caco-2
human Atg7 = human Atg7 (Homo sapiens, UniProt O95352); assay: E1-E2 transthiolation HTRF assay, ATG7 (RH-GABARAP); format: biochemical
Excerpt: (§4) 592 E1-E2 Transthiolation Assays
(§5) 593 An Homogeneous Time-Resolved Fluorescence (HTRF) enzyme assay was employed to evaluate
(§6) 594 compound activity against ATG7 as previously described (11). In this assay, a Flag-tagged ATG8 homolog
(§7) 595 (GABA type A receptor-associated protein; GABARAP) is activated by ATG7 and then transthiolated to a
(§8) 596 GST-tagged E2 (ATG3). The product of the enzyme reaction, Flag-GABARAP-ATG3-GST, is quantified
(§9) 597 by measuring FRET between Europium-Cryptate labelled monoclonal anti-Flag M2 (CisBio International,
598 Cat# 61FG2KLB) and PHYCOLINK goat anti-GST allophycocyanin (Prozyme, PJ252p1). […]
(§10) 606 Compounds were incubated with mature stage V gametocytes ([…], kind gift from Professor Chris Janse
(§11) 607 at Leiden University Medical Center (LUMC), the Netherlands) for 48 hours in 384 well plates before
(§12) 608 gamete formation was triggered by a drop in temperature and addition of xanthurenic acid. […]
(§13) 611 Multiple data sets using different gametocyte cultures were collected on each of two separate days.
(§14) 613 Activity against exoerythrocytic stages
614 Primary human hepatocytes (H1500.H15B+ Lot No. HC10-10 Cryopreserved human hepatocytes)
615 were cultured for 2 days and then overlaid with P. falciparum NF54 sporozoites and compounds.
616 Supernatant was refreshed daily with fresh compounds.

[2] = molecular target: ubiquitin activating enzyme (UAE) (Homo sapiens, UniProt P22314); assay: E1-E2 transthiolation HTRF assay, UAE; format: biochemical
Excerpt: as §4, §5, §6, §7, §8, §9
598 Cat# 61FG2KLB) and PHYCOLINK goat anti-GST allophycocyanin (Prozyme, PJ252p1). The activation
599 and transthiolation of ubiquitin by Ubiquitin Activating Enzyme, activation and transthiolation of NEDD8
600 by NEDD8 Activating Enzyme. […]
as §10, §11, §12, §13, §14
614 Primary human hepatocytes (H1500.H15B+ Lot No. HC10-10 Cryopreserved human hepatocytes) […]

ubiquitin activating enzyme (UAE), sequence (P22314 whole entry): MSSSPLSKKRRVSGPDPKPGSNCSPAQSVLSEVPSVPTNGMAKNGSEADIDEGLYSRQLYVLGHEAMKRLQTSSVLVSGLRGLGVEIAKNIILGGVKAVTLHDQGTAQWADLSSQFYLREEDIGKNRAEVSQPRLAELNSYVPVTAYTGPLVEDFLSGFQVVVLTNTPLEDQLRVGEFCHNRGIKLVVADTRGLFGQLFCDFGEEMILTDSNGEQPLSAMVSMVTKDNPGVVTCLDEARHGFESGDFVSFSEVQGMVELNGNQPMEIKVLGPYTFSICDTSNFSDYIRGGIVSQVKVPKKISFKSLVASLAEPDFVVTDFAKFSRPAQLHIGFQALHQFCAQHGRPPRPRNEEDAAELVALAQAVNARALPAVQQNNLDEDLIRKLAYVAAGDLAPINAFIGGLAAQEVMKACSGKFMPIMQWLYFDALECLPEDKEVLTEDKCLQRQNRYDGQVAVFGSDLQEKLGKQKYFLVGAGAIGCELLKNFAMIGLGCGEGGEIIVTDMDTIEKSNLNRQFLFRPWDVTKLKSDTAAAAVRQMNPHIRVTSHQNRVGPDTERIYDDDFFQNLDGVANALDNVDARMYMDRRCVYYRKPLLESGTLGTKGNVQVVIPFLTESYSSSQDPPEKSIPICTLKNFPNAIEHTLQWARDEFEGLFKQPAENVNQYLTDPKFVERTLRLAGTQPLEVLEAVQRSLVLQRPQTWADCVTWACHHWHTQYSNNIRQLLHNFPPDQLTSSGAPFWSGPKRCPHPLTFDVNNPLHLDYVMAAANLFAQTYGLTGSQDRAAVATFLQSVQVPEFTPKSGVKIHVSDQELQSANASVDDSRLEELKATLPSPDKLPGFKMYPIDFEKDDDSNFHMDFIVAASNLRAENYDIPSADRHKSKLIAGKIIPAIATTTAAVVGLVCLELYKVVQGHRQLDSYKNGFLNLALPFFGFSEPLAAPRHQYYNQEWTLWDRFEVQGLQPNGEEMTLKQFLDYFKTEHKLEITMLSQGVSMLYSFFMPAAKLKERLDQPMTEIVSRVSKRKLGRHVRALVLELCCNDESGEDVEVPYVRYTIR
human Atg7, sequence (O95352 whole entry): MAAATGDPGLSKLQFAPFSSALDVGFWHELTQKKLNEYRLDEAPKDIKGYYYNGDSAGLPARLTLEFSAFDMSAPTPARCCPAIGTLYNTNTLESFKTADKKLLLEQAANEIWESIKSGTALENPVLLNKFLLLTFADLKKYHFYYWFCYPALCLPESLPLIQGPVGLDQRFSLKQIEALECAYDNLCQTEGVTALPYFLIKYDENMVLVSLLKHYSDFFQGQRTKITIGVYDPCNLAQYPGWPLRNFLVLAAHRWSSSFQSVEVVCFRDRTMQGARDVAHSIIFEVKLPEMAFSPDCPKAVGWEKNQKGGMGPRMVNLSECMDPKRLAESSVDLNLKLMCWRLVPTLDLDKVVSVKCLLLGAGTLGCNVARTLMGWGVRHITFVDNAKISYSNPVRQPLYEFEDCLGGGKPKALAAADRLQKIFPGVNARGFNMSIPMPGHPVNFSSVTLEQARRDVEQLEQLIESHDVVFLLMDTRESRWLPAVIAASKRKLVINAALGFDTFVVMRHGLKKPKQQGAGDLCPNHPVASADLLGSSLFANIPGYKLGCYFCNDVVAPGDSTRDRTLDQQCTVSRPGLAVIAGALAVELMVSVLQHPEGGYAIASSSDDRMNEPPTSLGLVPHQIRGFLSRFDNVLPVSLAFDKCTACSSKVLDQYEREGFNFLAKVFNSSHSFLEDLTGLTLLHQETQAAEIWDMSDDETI

SMILES: Nc1ncnc2c1c(OC(F)F)nn2[C@@H]1O[C@H](COS(N)(=O)=O)[C@@H](O)[C@H]1O [ML901]
- Vd (in vivo; iv, 1 mg/kg, Vss): 4.89 L/kg
- Cmax (in vivo; po, 10 mg/kg, p.o. Cmax): 130 nM
- reduced sensitivity of selected parasites ([1]; 3D7 line under increasing compound concentrations over 4 months, versus parent): 10 fold
- IC50 ([1]; Plasmodium falciparum, 3D7, read-out: IC50_72h, ML901-selected resistant clones): 28 nM
- Papp A→B (Caco2 permeability; A to B): 0.7 ×10⁻⁶ cm/s
- Papp B→A (Caco2 permeability; B to A): 0.82 ×10⁻⁶ cm/s
- IC50 (human Atg7): 33 nM
- IC50 [2]: > 1000 nM
